The source of these data is ChEMBL document CHEMBL1140311, “Design and synthesis of new nonsteroidal glucocorticoid modulators through application of an "agreement docking" method” (J Med Chem, 2005).

For test [1], the target named is T1, Glucocorticoid receptor (Homo sapiens) (UniProt P04150).
T1 sequence (whole entry): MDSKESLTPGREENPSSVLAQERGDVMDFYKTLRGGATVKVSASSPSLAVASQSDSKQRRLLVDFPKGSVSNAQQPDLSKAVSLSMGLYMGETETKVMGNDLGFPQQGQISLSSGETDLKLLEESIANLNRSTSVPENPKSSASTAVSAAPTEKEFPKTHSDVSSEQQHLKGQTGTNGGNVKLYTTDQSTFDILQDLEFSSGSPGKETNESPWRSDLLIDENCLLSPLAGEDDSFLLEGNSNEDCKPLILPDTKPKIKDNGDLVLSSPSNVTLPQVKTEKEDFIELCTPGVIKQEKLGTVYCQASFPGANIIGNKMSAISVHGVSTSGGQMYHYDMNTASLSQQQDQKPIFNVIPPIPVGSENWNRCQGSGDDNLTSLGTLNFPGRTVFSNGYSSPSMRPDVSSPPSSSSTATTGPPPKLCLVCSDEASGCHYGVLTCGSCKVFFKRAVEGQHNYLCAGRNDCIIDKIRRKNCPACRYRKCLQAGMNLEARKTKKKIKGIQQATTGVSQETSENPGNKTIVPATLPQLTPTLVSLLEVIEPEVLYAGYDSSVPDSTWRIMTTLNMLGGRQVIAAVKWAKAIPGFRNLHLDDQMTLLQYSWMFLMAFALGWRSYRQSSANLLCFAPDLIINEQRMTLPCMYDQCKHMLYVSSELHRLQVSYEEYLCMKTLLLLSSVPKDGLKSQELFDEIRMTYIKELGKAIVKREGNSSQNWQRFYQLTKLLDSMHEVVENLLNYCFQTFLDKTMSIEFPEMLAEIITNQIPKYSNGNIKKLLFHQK
In words: Glucocorticoid receptor mediated transrepression of NFkB reporter gene in human A549 lung epithelial cells at 10 uM. The class given is functional, cell-based. In general terms: In a reporter assay the amount or activity of a reporter protein is the signal.

A short description of test [2]: Binding affinity for glucocorticoid receptor.
The target in test [3] is T2, Glucocorticoid receptor (Homo sapiens, UniProt P04150).
T2 sequence (P04150 whole entry): T1 sequence (whole entry)
In words: Antagonist activity for Glucocorticoid receptor in MMTV transactivation assay in human A549 lung epithelial cells at 10 uM. It is filed as functional, cell-based.

The target of test [4] is T2, Glucocorticoid receptor. In words: Glucocorticoid receptor mediated transrepression of NFkB reporter gene in human A549 lung epithelial cells. The class given is functional, cell-based.

A word on the IC50: it is the midpoint of a concentration-inhibition curve. Lower therefore signals greater potency in that assay. With `Cc1noc(=O)c2ccc(NC(=O)C(O)(CC3CCc4ccccc43)C(F)(F)F)cc12` (configuration not stated), the Max inhibition in test [1] was 73%. In addition, in test [2], the “Log IC50” value is given as -7.81. On Glucocorticoid receptor [3], the IC50 was 4790 nM. For the molecule `Cc1noc(=O)c2ccc(NC(=O)C(O)(CC3CCCc4ccccc43)C(F)(F)F)cc12` (stereo in doubt; 9d (D2E2)) [listing 1 of 2 here], the “Log IC50” value in test [2] was -7.15. Moreover, the IC50 at Glucocorticoid receptor [3] was 3890 nM. `Cc1noc(=O)c2ccc(NC(=O)C(O)(CC3CCCc4ccccc43)C(F)(F)F)cc12` (stereo in doubt; 9d (D2E2)) [listing 2 of 2 here]: the Max inhibition in test [1] came out at 23%. For `Cc1noc(=O)c2ccc(NC(=O)C(O)(CC3CCCc4ccccc43)C(F)(F)F)cc12` (stereo in doubt; 9e (D1E1)) [listing 1 of 2 here], the “Log IC50” value in test [2] is on record as -8.08. Further, 562 nM corresponded to half-maximal inhibition on Glucocorticoid receptor [3] (IC50). `Cc1noc(=O)c2ccc(NC(=O)C(O)(CC3CCCc4ccccc43)C(F)(F)F)cc12` (stereo in doubt; 9e (D1E1)) [listing 2 of 2 here] showed a Max inhibition in test [1] of 51%. Turning to `Cc1noc(=O)c2ccc(NC(=O)C(O)(CC3CCCCc4ccccc43)C(F)(F)F)cc12` (stereo in doubt; 15a (D1E2)) [listing 1 of 2 here], the “Log IC50” value in test [2] is -8.57. Besides, the results for the IC50 on Glucocorticoid receptor [3] and against Glucocorticoid receptor [4] were 708 nM and 145 nM, respectively. In the case of `Cc1noc(=O)c2ccc(NC(=O)C(O)(CC3CCCCc4ccccc43)C(F)(F)F)cc12` (stereo in doubt; 15a (D1E2)) [listing 2 of 2 here], in test [1], the Max inhibition worked out at 60%. Consider `Cc1noc(=O)c2ccc(NC(=O)C(O)(CC3CCCCc4ccccc43)C(F)(F)F)cc12` (stereo in doubt; 15b (D2E1)) [listing 1 of 2 here], for which the “Log IC50” value in test [2] is listed as -7.75. This molecule had an IC50 against Glucocorticoid receptor [3] of 1000 nM. In the case of `Cc1noc(=O)c2ccc(NC(=O)C(O)(CC3CCCCc4ccccc43)C(F)(F)F)cc12` (stereo in doubt; 15b (D2E1)) [listing 2 of 2 here], the Max inhibition in test [1] was 24%.

As for `C[C@@H]1C[C@H]2[C@@H]3CCC4=CC(=O)C=C[C@]4(C)[C@@]3(F)[C@@H](O)C[C@]2(C)[C@@]1(O)C(=O)CO` [DEXAMETHASONE], the “Log IC50” value in test [2] was -8.1.
